For this experiment, the target named is T1, carboxypeptidase U (Homo sapiens, UniProt Q96IY4).
T1 sequence (Q96IY4 115-423): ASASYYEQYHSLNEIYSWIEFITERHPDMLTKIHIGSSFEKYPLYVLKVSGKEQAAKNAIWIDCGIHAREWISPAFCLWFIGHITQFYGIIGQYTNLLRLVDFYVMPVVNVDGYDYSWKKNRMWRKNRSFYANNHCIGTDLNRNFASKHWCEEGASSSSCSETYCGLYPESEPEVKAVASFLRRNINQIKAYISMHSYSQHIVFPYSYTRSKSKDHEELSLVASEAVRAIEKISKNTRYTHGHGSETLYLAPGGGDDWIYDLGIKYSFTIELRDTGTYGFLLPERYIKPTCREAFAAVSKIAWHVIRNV
Briefly: carboxypeptidase U inhibition assay (Hendriks et al., Clin. Chem. 1985), substrate concentration 4 mM. Particulars: substrate concentration of 4 mM. Type of experiment: biochemical. The method, then:
The inhibiting effect of the compounds of the present invention was estimated using the assay described in: Dirk Hendriks, Simon Scharpé and Marc van Sande, Clinical Chemistry, 31, 1936-1939 (1985); and Wei Wang, Dirk F. Hendriks, Simon S. Scharpé, The Journal of Biological Chemistry, 269, 15937-15944 (1994), using a substrate concentration of 4 mM.
The activities of certain Examples in the assay described in: Dirk Hendriks, Simon Sharpé and Marc van Sande, Clinical Chemistry, 31, 1936-1939 (1985), using a substrate concentration of 4 mM, are presented in Table I below.

SMILES strings stand for the structures. *1 amine or outer side, *2 acyl side, *3 side chain or, on linkers, in order; H or OH if unused. Where a SMILES comes first, the peptide text is derived from it. Bridges are numbered along the chain shown (N, C = ends). [ ]: non-standard residue; d: D form. ξ: configuration not given here. X2 = CN([C@@H](Cc1c[nH]c2cc(Cl)c(O)cc12)C(=O)[*:2])[*:1]; X1 = O=C([C@H](Cc1c[nH]c2cc(Cl)c(O)cc12)N[*:1])[*:2]; Ile(3ξ) = CCC(C)[C@H](N)C(=O)O; NMeL = CN[C@@H](CC(C)C)C(=O)O; CO = O=C([*:1])[*:2]

Broadly, the IC50 is the point on the concentration scale where inhibition reaches its midpoint. Read a high IC50 as lower potency.

As to `CCC(C)[C@H](NC(=O)N[C@@H]1CCCCNC(=O)[C@H](Cc2ccccc2)NC(=O)[C@H](Cc2c[nH]c3cc(Cl)c(O)cc23)N(C)C(=O)[C@H](CC(C)C)NC(=O)[C@H](C(C)CC)NC1=O)C(=O)O` (some centres unmarked) [Compound 8] ({Ile(3ξ)-CO}-[dK][Ile(3ξ)]L[X2]F; lactam 1-C), the IC50 was determined as 2.5 µM. That is a single-digit micromolar value.
The figure for `CC(C)C[C@@H]1NC(=O)[C@H](C)NC(=O)[C@H](NC(=O)N[C@@H](CCCNC(=N)N)C(=O)O)CCCCNC(=O)[C@H](Cc2c[nH]c3cc(Cl)c(O)cc23)NC(=O)[C@H](CC(C)C)N(C)C1=O` [Compound 2] ({Arg-CO}-[dK]AL[NMeL][X1]; lactam 1-C) is 0.1 µM.

Source of the values: US20080039376A1, “Use of Cyclic Anabaenopeptin-type Peptides for the Treatment of a Condition Wherein Inhibition of Carboxypeptidase U is Beneficial, Novel Anabaenopeptin Derivatives and Intermediates Thereof” (A[…], priority 2003, published 2008).
